Earlier results as cited in patent US8258301B2, “Urotensin II receptor antagonists” (Boehringer Ingelheim International GmbH, priority 2007, dated 2012).

Details: patients, clinical trial

For `Cc1cc(NC(=O)NCCN2CCC(O)(Cc3ccccc3)CC2)c2ccccc2n1` [Palosuran], the “modulate the 24-hour urinary albumin excretion rate” value is listed as 24.3%.
